Patent US8211912B2, “Compositions and methods for effecting NAD+ levels using a nicotinamide phosphoribosyl tranferase inhibitor” (Gemin X Pharmaceuticals Canada, priority 2007, dated 2012)
“And” between values parts separate entries of the source, which are not always exact repeats. Equal entries are not always repeated.

Assays:
IM-9 (Multiple myeloma) = assay: Cell viability assay (72 h, ViaLight, relative ATP levels); type: cell-based, human
Description: (§1) IC50 value for the compound was determined in IM-9 and HCT-116 cells by ViaLight essay as described supra.

[1] = system: DMS-114 human small cell lung carcinoma cells; assay: Sensitization to DNA damaging chemotherapeutic agents, relative ATP viability, 3 days; type: cell-based; settings: 0.75 nM Compound 1 alone, 3 days; one value per experiment series (row agent); 0.00075 µM
Description: (§2) Cells were plated in logarithmic growth phase at 500-20,000 cells per well in 96-well clear bottom plates (Corning; Corning, N.Y.) and cultured for 14 to 16 hours prior to the start of drug treatment. Serial dilutions of Compound 2 and Compound 1 were made in DMSO, diluted 1:50 in RPMI-1640 (Hyclone; Logan, Utah) and then added to tissue culture media at a final concentration of 0.2% DMSO. […] Relative ATP levels were determined by the bioluminescent measuring of cellular ATP levels in each culture well with the ViaLight-HS High Sensitivity Cytotoxicity and Cell Proliferation BioAssay Kit (Cambrex Bioproducts, Cat. No. LT07-311; Charles City, Iowa) according to manufacturer's instructions. Briefly, a cell permeabilizing reagent was added to each culture well in media at the time of viability determination, allowing free ATP to be released from viable cells in the culture. Addition of luciferase to the mixture catalyzes the release of light proportional to the amount of free ATP present, which can then be quantified in a Centro LB 960 luminometer (EG&G Berthold; Oak Ridge, Tenn.); the level of ATP is generally directly proportional to the viability of the cells.
(§3) Sigmoidal dose response curves were then generated using non-linear regression analysis of variable slope by Prism Version 4.00 for Windows (GraphPad Software, Inc.; San Diego, Calif.) and IC50 values calculated.
(§4) The IC50 values for the treatment with the DNA damaging agent were calculated relative to control cells that were treated with DMSO only.

[2] = system: HeLa cells transfected with pcFLAG-PNC1; assay: Compound 1 cytotoxicity in cells overexpressing yeast PNC1, ViaLight 72 h; settings: pcFLAG-PNC1 vs pcDNA3, 72 h ViaLight
Description: Viability was measured after 72 hours by ViaLight assay. […] Each point represents the mean and error bars the SD of triplicate samples. […] The concentration of nicotinamide in RPMI 1640 media was […]. HeLa cells were transiently transfected with vector (pcDNA3) or a plasmid expressing a flag-tagged yeast PNC1 gene (pcFLAG-PNC1). […] Relative viability was assessed after 72 hours by ViaLight assay.

[3] = system: FaDu cells (human hypopharyngeal squamous cancer); assay: Clonogenic survival with radiation therapy; type: cell-based; settings: Compound 1 10 nM for 24 hours prior to 0-10 Gy
Description: FaDu cells (human hypopharyngeal squamous cancer) were obtained from American Type Culture Collection (Manassas, Va.) and cultured according to specifications. FaDu cells were seeded in 96-well plates at densities of 5,000 per well and incubated overnight at 37° C. to allow for cell attachment.
Cells were irradiated at room temperature using a ^137Cs unit (Gamma-cell 40 Extractor; Nordion International, Inc.; Ontario, Canada) at a dose rate of about 1.1 Gy/min. The cells were then administered 0, 2, 4, 6, 8, or 10 Gy of radiation. About 48 hours after radiation therapy, the drug-containing medium was replaced with fresh growth medium and the plates were incubated at 37° C. Nine days after seeding, colonies were fixed in 70% ethanol, stained with 10% methylene blue, and colonies of ≧50 cells were counted. The surviving fraction was determined as the ratio of the number of colonies in the treated sample to that of the non-treated control sample. Eight wells were set up for each condition and the experiment was performed three times and all data are reported as mean±SE.
Thus, Compound 1 sensitizes the head and neck squamous tumor forming cells to radiation therapy.

human NMPRT = human NMPRT (Homo sapiens, UniProt P43490); assay: Recombinant NMPRT coupled-enzyme fluorescence assay; type: biochemical; set-up: made in house; host or cells: E. coli BL21(DE3)pLysS; settings: two independent experiments; Cheng-Prusoff; His-Flag tagged recombinant NMPRT
Sequence of human NMPRT (P43490 whole entry): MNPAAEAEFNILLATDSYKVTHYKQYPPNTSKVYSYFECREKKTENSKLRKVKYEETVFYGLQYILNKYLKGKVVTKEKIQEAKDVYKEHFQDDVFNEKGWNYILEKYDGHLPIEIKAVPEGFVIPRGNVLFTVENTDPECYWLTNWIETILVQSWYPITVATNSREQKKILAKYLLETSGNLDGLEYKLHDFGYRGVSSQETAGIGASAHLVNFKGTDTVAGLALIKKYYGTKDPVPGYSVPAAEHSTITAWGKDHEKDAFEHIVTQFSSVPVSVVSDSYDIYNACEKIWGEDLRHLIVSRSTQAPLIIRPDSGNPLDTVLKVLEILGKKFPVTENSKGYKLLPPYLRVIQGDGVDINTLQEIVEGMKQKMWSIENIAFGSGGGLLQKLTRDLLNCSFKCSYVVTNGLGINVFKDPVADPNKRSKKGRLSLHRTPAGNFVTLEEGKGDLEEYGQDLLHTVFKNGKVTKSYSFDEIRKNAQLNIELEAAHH
Description: Human NMPRT cDNA (Origene; Rockville, Md.) was cloned into the pET151 vector (Invitrogen; Carlsbad, Calif.). The resulting construct encodes a recombinant NMPRT protein with hexahistidine and FLAG epitope tags at the NH2-terminus. Four liters of BL21(DE3)pLysS bacteria (Invitrogen; Carlsbad, Calif.) at O.D. ˜0.6 in LB media were induced to express the NMPRT protein with 200 μM IPTG (Roche Diagnostics; Mannheim, Germany) for 3.5 hours with shaking (250 rpm) at 37° C. The bacterial cells were harvested by centrifugation at 6,000 g for 15 minutes at 4° C., the supernatant was discarded and the cells frozen at −20° C. […] The protein concentration was determined by Bradford assay (Bio-Rad; Hercules, Calif.).
The activity of recombinant NMPRT was assessed using a coupled-enzyme fluorescence assay based on the quantitation of NAD^+. […] Fluorescence was measured using a Tecan Safire plate reader (Tecan-US; Durham, N.C.) with an excitation wavelength of 560 nm and emission wavelength of 590 nm. The Km for nicotinamide was determined for every preparation of the enzyme and a titration of NAD^+ was run with every assay to ensure that measurements were within the linear range. […] The Ki was calculated using Prism version 4.0 (Graphpad Software, Inc; San Diego, Calif.) and the Cheng-Prusoff Equation. […]
as §1

[4] = system: NAD^+ synthesis in HeLa cells and HeLa cell extracts; assay: Conversion of ^14C nicotinamide or ^14C nicotinic acid to ^14C-labeled NAD^+ (TLC); settings: Compound 1 20 nM
Description: In vivo: HeLa cells (1×10^6 per sample) were plated 14-16 hours prior to the start of drug treatment. […] Cells were harvested by trypsinization and collected by centrifugation, and cell pellets resuspended in 50 μl of 10 mM NaH2PO4. To extract the radiolabeled nucleotide metabolites, the cells were lysed by 6 freeze-thaw cycles of liquid nitrogen/37° C. water bath. Precipitates were removed by centrifugation at 13,000 g for 20 mins.
In vitro: Untreated HeLa cells were harvested by trypsinization, collected by centrifugation and resuspended at 2.5×10^7 cells/mL in 10 mM NaH2PO4 buffer then cell extracts were made by 6 freeze-thaw cycles as above and cell extracts clarified by centrifugation at 23,000 g at 4° C. for 90 mins. […] The reaction was terminated by incubation at 100° C. for 2 mins. The radiolabeled nucleotides were separated by thin-layer chromatography and identified by comparison with radiolabeled standards of NAD^+, its precursors and metabolites (Moravek Biochemicals; Brea, Calif.). Approximately 10 μL of each sample was spotted onto Silica gel 60 plates (Merck KGaA, EMD chemicals Inc; Gibbstown, N.J.) and resolved in a solvent of isobutyric acid: ammonium hydroxide:water (66:1:33) overnight. The dried TLC plates were then exposed to BAS-MS screens (Fuji Photo Film Co. LTD; Kanagawa, Japan) for 2-3 days, scanned on a Typhoon Imager (Amersham; Piscataway, N.J.). […]

[5] = system: Jurkat human T cell leukemia cells; assay: Sensitization to DNA damaging chemotherapeutic agents, relative ATP viability, 3 days; settings: 0.5 nM Compound 1 alone, 3 days; one value per experiment series (row agent); 0.0005 µM
Description: as §2, §3, §4

## 4-[N′-cyano-N″-(6-(4-chlorophenoxy)-hexyl)-N-guanidino]-pyridine [Compound 1]
IM-9 (Multiple myeloma)
  IC50: 3.33 ± 0.66 nM
[1]
  Percent viability of DMS-114 cells, 0.75 nM Compound 1 (no DNA damaging chemotherapeutic agent): 47.7 ± 12% and 61.9 ± 16% and 57.9% and 53.20 ± 9.1%
[2]
  Effect of yeast PNC1 overexpression on Compound 1 cytotoxicity: rescued
[3]
  Survival of FaDu cells with radiation therapy: reduces survival of FaDu cells compared to radiation therapy alone
Human NMPRT
  Ki: 1 nM
[4]; ^14C nicotinamide
  NAD^+ synthesis from nicotinamide: blocks
[4]; ^14C nicotinic acid
  NAD^+ synthesis from nicotinic acid: not
[5]
  Percent viability of Jurkat cells, 0.5 nM Compound 1 + No DNA damaging chemotherapeutic agent: 90.1 ± 20% and 80.7 ± 12% and 97.6 ± 3.2% and 76.0 ± 55%
